Some test systems named below: SR leukemia; A549 NSCLC; COLO 205 colon; NCI-H226 lung; HCT-116 colon; NCI-H460 lung; HOP-62 NSCLC; KM12 colon; BT-549 breast; PC-3 prostate.
What all share (assay): NCI anticancer screen, dose series, 48 h

The text below walks through data of PubChem BioAssay (NCI).

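Exposure lasted 48 hours, with cells grown in 96-well plates and compounds tested at five concentrations. Definition used: TGI = concentration required for complete inhibition of growth.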

Turning to `CC(=O)OC1CC2C(C)(C)OC(=O)CC(OC(C)=O)[C@]2(C)C2CCC3(C)C(=CCC3[C@H]3COC(=O)C3)[C@]12C` (some centres not stated), the TGI with SR leukemia is 78.1 µM; in the experiment with A549 NSCLC it was greater than 100 µM; in the experiment on COLO 205 colon, greater than 100 µM; with NCI-H226 lung, greater than 100 µM; with HCT-116 colon, greater than 100 µM; in the experiment on NCI-H460 lung it was greater than 100 µM. Also, the TGI with HOP-62 NSCLC and in the experiment with KM12 colon was greater than 100 µM throughout.

For the compound `O=C(CSc1nnc(Cc2ccccc2)o1)Nc1ccc([N+](=O)[O-])cc1`, the TGI with A549 NSCLC, in the experiment on COLO 205 colon, with NCI-H226 lung, with HCT-116 colon, in the experiment on NCI-H460 lung and with HOP-62 NSCLC was greater than 100 µM throughout. In the experiment on KM12 colon, this compound registered a TGI greater than 100 µM.

On to `O=C(Cc1ccccc1)NN1C(=O)/C(=C\c2cccc(O)c2)SC1=Nc1ccccc1`, for which the TGI with A549 NSCLC, in the experiment with COLO 205 colon, with NCI-H226 lung, in the experiment with HCT-116 colon, with NCI-H460 lung and with HOP-62 NSCLC was greater than 100 µM in each case. This compound returned a TGI in the experiment on KM12 colon greater than 100 µM.

As for `O=C(NC(Cc1ccc(I)cc1)C(=O)O)c1ccc(Br)cc1` (configuration not stated), the TGI with A549 NSCLC, in the experiment with COLO 205 colon, with NCI-H226 lung, in the experiment with HCT-116 colon, with NCI-H460 lung and in the experiment on HOP-62 NSCLC was greater than 100 µM in each case. The compound also had a TGI in the experiment with KM12 colon greater than 100 µM.

Take `NC(=O)NNC(=O)c1nc[nH]c1[N+](=O)[O-]`: the TGI in the experiment on BT-549 breast, in the experiment with A549 NSCLC, with COLO 205 colon, with NCI-H226 lung, with PC-3 prostate and in the experiment with HCT-116 colon was greater than 100 µM throughout. Also, the TGI in the experiment with NCI-H460 lung and in the experiment with HOP-62 NSCLC was greater than 100 µM throughout.

With `O=C1OC2(OC2c2ccccc2)c2ccccc21` (configuration not stated), the TGI in the experiment with SR leukemia, in the experiment with A549 NSCLC, in the experiment on COLO 205 colon, in the experiment on NCI-H226 lung, in the experiment with HCT-116 colon and with NCI-H460 lung was greater than 100 µM each time. The TGI in the experiment with HOP-62 NSCLC and in the experiment with KM12 colon was greater than 100 µM throughout.

With `CCCCCCCCCCCCCCCCCC(=O)O[C@H](COC(=O)CCCCCCCCCCC)COC(=O)CCCCCCCCCCCCCCC`, the TGI with SR leukemia, in the experiment on A549 NSCLC, in the experiment with COLO 205 colon, in the experiment with NCI-H226 lung, in the experiment on HCT-116 colon and in the experiment on NCI-H460 lung was greater than 100 µM each time. Besides, the TGI with HOP-62 NSCLC is greater than 100 µM.

In the case of `N#C/C(=C\n1ccc(=O)[nH]c1=S)C(N)=O`, the TGI in the experiment on SR leukemia, in the experiment with A549 NSCLC, with COLO 205 colon, with NCI-H226 lung, in the experiment with PC-3 prostate and with HCT-116 colon was greater than 100 µM throughout. In addition, the TGI in the experiment on NCI-H460 lung, with HOP-62 NSCLC and in the experiment on KM12 colon was greater than 100 µM in each case.

Consider `Nn1c(CCCCCCCCc2nnc(COc3ccc(Cl)cc3)n2N)nnc1COc1ccc(Cl)cc1`, for which the TGI in the experiment with BT-549 breast, in the experiment with A549 NSCLC, with COLO 205 colon, in the experiment with NCI-H226 lung, in the experiment on PC-3 prostate and with HCT-116 colon was greater than 100 µM in each case. For the same compound, the TGI in the experiment with NCI-H460 lung and in the experiment on KM12 colon was greater than 100 µM throughout.

Take `Cc1[nH]c(=O)[nH]c(=O)c1/C=C/C(=O)O`: the TGI with A549 NSCLC, with COLO 205 colon, with NCI-H226 lung, with HCT-116 colon, in the experiment on NCI-H460 lung and in the experiment on HOP-62 NSCLC was greater than 1000 µM throughout. This compound also gave a TGI in the experiment on KM12 colon greater than 1000 µM.

For `CC1=COC(C)(C=C(C#N)C#N)CC1` (configuration not stated), the TGI in the experiment with SR leukemia, with A549 NSCLC, in the experiment with COLO 205 colon, with NCI-H226 lung, with HCT-116 colon and with NCI-H460 lung was greater than 100 µM throughout. The TGI with HOP-62 NSCLC and in the experiment on KM12 colon was greater than 100 µM throughout.

On to `O=C(NCCCCCCNCc1cccc2ccccc12)Nc1cccc2ccccc12`, for which the TGI in the experiment on BT-549 breast, in the experiment with A549 NSCLC, in the experiment with COLO 205 colon, in the experiment on PC-3 prostate, in the experiment on HCT-116 colon and with NCI-H460 lung was greater than 100 µM throughout. Also, the TGI in the experiment on HOP-62 NSCLC and in the experiment on KM12 colon was greater than 100 µM each time.

As to `CCCC(C)NC1=C(NC(C)=O)C(=O)c2ccccc2C1=O` (configuration not stated), the TGI in the experiment with SR leukemia, with A549 NSCLC, in the experiment with COLO 205 colon, in the experiment on NCI-H226 lung, in the experiment on HCT-116 colon and in the experiment with NCI-H460 lung was greater than 100 µM each time. Further, the TGI in the experiment on HOP-62 NSCLC and in the experiment with KM12 colon was greater than 100 µM throughout.

As for `COC(=O)C1=C2SCc3cccc(c3)CSC3=C(C(=O)OC)SC(=C(S2)S1)S3`, the TGI in the experiment on A549 NSCLC, in the experiment on COLO 205 colon, in the experiment on NCI-H226 lung, with PC-3 prostate, with HCT-116 colon and in the experiment on NCI-H460 lung was greater than 100 µM throughout. Also, the TGI with HOP-62 NSCLC and in the experiment with KM12 colon was greater than 100 µM each time.

`O=C(Cc1ccccc1)NN1C(=O)C(Cl)C1c1ccc(O)cc1` (configuration not stated): the TGI in the experiment with SR leukemia, in the experiment with A549 NSCLC, with COLO 205 colon, in the experiment on NCI-H226 lung, in the experiment on HCT-116 colon and in the experiment on NCI-H460 lung was greater than 100 µM each time. In addition, the TGI in the experiment on HOP-62 NSCLC and in the experiment with KM12 colon was greater than 100 µM throughout.

In the case of `O=C1NC(N/N=C/C(O)C(O)C(O)CO)=N/C1=C\c1ccco1` (configuration not stated), the TGI in the experiment with BT-549 breast, with A549 NSCLC, in the experiment with COLO 205 colon, in the experiment on NCI-H226 lung, with HCT-116 colon and in the experiment on NCI-H460 lung was greater than 100 µM each time. The TGI in the experiment with HOP-62 NSCLC and in the experiment on KM12 colon was greater than 100 µM each time.

Turning to `O=c1[nH]nc(Cc2ccc([N+](=O)[O-])cc2)n1CCO`, the TGI in the experiment on BT-549 breast, in the experiment on A549 NSCLC, in the experiment on COLO 205 colon, with NCI-H226 lung, with PC-3 prostate and in the experiment on HCT-116 colon was greater than 100 µM in each case. For the same compound, the TGI in the experiment with NCI-H460 lung and in the experiment with KM12 colon was greater than 100 µM in each case.
